Results as given in publication doi:10.1101/2021.06.10.447852v1 (biorxiv, 2021).

system: EZH2 (methyltransferase component of PRC2); assay: cells; settings: Homo sapiens, HEK-293T, 48 h, read-out: Cell IC50 (H3K27me3) (nM)

SMILES | IC50 [nM]
CSc1cc(C)n(C)c(=O)c1CN1CCN(C)c2c(Cl)cc(-c3c(C)noc3C)c(Cl)c2C1=O [compound 22, 22] | 1550
CSc1cc(C)[nH]c(=O)c1CN1CCN(C)c2c(Cl)cc(-c3c(C)noc3C)c(Cl)c2C1=O [compound 21, TDI-11904] | 6
CSc1cc(C)n(C)c(=O)c1CN1CCNc2c(Cl)cc(-c3c(C)noc3C)c(Cl)c2C1=O [compound 23, 23] | 167
